From patent US20030152637A1, “Local anesthetic, and method of use” (priority 2001, published 2003)

Columns and labels:
[1] = In-vitro release of bupivacaine, USP Apparatus 2 Paddle Method, pH 3.0; type: physicochemical
Description: The in-vitro dissolution range described above may be determined by subjecting the local anesthetic formulation to in-vitro conditions specified by the USP II Paddle Method, 100 RPM, 37 degrees Celsius, pH 3.0 in 900 ml of 10 mM sodium phosphate buffer.
(§1) The in-vitro release of bupivacaine from the microcapsules of Examples 1 and 2 was examined. Dissolution was performed by using USP Apparatus 2 Paddle Method <711>at 100 rpm at 37° C. A 80 mg±3 mg of sample, irrespective of microcapsules formulation, was employed per vessel containing 900 mL of 10 mM Sodium Phosphate Buffer, pH 3.0. The samples (clear solution) were withdrawn at preset time intervals and analyzed for bupivacaine base by HPLC. The HPLC conditions are:
as §1, with “the microspheres” for “the microcapsules”, “Examples 2 (batches 1-4), 2A, 3,” for “Examples 1”, “and 4” for “and 2”, “Method at” for “Method <711>at”, “of microsphere” for “of microcapsules”, “HPLC.” for “HPLC. The HPLC conditions are:”
The in-vitro release of bupivacaine from the microspheres of Examples 2B was examined. Dissolution was performed by using USP Apparatus 2 Paddle Method <711> at 100 rpm at 37° C. A 80 mg±3 mg of sample, irrespective of microsphere formulation, was employed per vessel containing 900 mL of 10 mM Sodium Phosphate Buffer, pH 3.0. The samples (clear solution) were withdrawn at preset time intervals and analyzed for bupivacaine base by HPLC. The following 24 hour dissolution release rates in Table 7B are preferred release rates which were based on batches made in accordance with the formulation of Example 2B (10 Kg scale batches).

[2] = Moore et al. 1976; cited from earlier work

For `CCCCN1CCCCC1C(=O)Nc1c(C)cccc1C` (stereo not drawn) [Bupivacaine base], which “In Vitro Release of Bupivacaine (Cumulative Release %)” value ([1]; 0.5 h) is on record?
Its value is 96.5%.

What about the “In Vitro Release of Bupivacaine (Cumulative Release %)” value ([1]; 1 h) of the same molecule?
Its value is 97.09%.

What about the “In Vitro Release of Bupivacaine (Cumulative Release %)” value ([1]; 2 h) of the same molecule?
Its value is 97.035%.

What about the “In Vitro Release of Bupivacaine (Cumulative Release %)” value ([1]; 3 h) of the same molecule?
The value was 97.275%.

What about the “In Vitro Release of Bupivacaine (Cumulative Release %)” value ([1]; 4 h) of the same molecule?
Its value is 97.665%.

And the “plasma bupivacaine level at which systemic toxic reactions are believed to occur” value [2]?
The value was 4000 ng/mL.
